Where two headings read alike, the source gives them in different places.
Key:
Experiment in all cases: Kinase profile (33P ATP filter binding)
Assay type in all cases: biochemical
MAPKAP-K3 = MAPKAP-K3 (Homo sapiens, UniProt Q16644); conditions: read-out: Remaining protein kinase activity
Experimental: (§1) The compounds were diluted to the appropriate concentration. The compounds were added to a “mother plate” consisting of samples, controls, and blanks. These serve as the source for “daughter plates” which are stored at −20 °C until assay initiation. Protein Kinases: Enzyme/Substrate mixture was added to the compound, and the compounds were incubated for five minutes at room temperature (RT). ^33P ATP was added to the compounds to initiate the assay. Orthophosphoric acid was added to the compounds to halt the assay. Assay components were harvested onto P81 filter plates, filter plates were air-dried, scintillation fluid was added to plates, and counts were read on a Topcount NXT. A mean percentage activity was calculated.

ULK1 = target: T1, ULK1 (Homo sapiens, UniProt O75385)
T1 sequence (O75385 1-1050): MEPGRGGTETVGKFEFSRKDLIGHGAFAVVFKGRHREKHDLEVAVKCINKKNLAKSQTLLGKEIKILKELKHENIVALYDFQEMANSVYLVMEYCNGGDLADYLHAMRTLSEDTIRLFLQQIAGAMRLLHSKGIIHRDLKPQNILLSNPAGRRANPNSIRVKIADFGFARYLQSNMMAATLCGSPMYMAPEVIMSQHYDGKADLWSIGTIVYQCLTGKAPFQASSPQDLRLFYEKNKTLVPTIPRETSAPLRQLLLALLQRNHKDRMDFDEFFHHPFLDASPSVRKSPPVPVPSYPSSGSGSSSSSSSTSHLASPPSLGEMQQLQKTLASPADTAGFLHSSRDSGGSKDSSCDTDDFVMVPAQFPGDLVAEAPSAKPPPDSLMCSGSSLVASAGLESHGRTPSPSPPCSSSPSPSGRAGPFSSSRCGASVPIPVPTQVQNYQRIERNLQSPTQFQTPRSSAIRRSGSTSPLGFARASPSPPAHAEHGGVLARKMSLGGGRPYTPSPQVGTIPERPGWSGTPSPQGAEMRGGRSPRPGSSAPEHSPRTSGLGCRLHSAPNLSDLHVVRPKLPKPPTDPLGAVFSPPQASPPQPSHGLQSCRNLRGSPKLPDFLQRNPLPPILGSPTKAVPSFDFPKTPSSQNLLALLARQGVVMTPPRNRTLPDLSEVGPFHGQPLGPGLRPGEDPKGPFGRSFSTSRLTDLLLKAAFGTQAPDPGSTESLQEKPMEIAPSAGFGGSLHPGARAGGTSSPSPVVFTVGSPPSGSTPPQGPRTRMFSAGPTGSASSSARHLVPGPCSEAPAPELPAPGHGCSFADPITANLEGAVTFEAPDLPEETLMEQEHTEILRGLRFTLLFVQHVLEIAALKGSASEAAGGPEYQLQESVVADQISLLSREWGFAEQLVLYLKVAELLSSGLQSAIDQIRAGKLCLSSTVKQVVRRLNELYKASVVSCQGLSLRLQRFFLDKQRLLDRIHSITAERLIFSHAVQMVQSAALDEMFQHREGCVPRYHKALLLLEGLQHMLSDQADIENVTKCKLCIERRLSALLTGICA
Experimental: as §1

EF2K = target: T2, EF2K (Homo sapiens, UniProt O00418); conditions: read-out: Remaining protein kinase activity
T2 sequence (O00418 1-725): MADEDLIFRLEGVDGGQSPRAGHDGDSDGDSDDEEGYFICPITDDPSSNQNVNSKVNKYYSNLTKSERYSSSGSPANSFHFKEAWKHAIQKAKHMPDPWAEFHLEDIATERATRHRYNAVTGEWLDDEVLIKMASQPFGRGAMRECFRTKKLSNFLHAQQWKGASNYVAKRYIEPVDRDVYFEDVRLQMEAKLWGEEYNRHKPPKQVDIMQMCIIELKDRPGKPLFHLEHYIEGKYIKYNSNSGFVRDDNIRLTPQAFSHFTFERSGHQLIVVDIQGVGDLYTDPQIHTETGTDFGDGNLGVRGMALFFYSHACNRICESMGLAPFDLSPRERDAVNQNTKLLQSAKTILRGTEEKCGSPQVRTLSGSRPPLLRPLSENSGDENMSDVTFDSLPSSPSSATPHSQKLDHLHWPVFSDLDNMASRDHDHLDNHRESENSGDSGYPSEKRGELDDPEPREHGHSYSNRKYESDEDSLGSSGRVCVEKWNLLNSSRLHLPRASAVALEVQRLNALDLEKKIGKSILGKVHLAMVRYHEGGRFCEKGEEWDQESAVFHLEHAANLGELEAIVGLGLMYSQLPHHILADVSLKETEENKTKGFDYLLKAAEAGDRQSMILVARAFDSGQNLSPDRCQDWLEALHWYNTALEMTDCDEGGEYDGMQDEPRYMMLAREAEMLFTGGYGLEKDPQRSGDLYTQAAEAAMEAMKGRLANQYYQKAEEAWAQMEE
Experimental: as §1

TESK1 = TESK1 (Homo sapiens, UniProt Q15569); conditions: read-out: Remaining protein kinase activity
Chain of TESK1 (Q15569 whole entry): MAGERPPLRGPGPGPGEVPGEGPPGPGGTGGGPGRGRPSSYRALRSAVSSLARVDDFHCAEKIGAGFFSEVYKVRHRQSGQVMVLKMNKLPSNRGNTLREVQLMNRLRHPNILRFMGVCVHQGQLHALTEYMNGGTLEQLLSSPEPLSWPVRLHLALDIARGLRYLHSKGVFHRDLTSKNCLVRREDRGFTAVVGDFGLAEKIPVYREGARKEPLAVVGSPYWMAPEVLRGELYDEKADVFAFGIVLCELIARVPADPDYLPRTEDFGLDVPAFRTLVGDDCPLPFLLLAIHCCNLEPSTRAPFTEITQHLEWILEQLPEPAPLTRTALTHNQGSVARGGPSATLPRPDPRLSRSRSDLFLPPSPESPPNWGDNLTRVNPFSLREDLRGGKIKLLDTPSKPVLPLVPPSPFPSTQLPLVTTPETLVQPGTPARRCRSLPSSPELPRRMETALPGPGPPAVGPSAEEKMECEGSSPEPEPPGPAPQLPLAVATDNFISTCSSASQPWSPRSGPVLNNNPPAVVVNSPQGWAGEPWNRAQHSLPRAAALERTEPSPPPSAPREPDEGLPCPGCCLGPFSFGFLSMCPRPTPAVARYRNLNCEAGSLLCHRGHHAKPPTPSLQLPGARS
Experimental: as §1

BTK = BTK (Homo sapiens, UniProt Q06187)
Chain of BTK (Q06187 whole entry): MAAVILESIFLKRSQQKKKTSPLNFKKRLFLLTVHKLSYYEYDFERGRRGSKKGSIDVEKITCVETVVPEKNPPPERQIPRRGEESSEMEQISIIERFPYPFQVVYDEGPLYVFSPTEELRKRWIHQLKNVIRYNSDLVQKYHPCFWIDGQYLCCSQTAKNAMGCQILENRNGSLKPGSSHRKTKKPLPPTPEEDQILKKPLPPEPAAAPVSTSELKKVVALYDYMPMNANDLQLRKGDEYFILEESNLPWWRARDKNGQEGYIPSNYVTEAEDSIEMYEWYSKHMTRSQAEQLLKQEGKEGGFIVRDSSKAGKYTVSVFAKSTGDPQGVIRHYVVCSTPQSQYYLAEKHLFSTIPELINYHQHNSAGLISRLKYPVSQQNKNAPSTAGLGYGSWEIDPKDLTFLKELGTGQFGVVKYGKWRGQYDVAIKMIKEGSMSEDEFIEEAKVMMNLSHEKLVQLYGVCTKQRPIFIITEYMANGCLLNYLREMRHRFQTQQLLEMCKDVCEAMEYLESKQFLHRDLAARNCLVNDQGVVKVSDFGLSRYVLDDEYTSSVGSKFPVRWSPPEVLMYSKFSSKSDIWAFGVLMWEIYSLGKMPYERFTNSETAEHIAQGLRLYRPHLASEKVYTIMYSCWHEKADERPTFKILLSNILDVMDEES
Experimental: as §1

MLK1 = MLK1 (Homo sapiens, UniProt P80192); conditions: read-out: Remaining protein kinase activity
Chain of MLK1 (P80192 whole entry): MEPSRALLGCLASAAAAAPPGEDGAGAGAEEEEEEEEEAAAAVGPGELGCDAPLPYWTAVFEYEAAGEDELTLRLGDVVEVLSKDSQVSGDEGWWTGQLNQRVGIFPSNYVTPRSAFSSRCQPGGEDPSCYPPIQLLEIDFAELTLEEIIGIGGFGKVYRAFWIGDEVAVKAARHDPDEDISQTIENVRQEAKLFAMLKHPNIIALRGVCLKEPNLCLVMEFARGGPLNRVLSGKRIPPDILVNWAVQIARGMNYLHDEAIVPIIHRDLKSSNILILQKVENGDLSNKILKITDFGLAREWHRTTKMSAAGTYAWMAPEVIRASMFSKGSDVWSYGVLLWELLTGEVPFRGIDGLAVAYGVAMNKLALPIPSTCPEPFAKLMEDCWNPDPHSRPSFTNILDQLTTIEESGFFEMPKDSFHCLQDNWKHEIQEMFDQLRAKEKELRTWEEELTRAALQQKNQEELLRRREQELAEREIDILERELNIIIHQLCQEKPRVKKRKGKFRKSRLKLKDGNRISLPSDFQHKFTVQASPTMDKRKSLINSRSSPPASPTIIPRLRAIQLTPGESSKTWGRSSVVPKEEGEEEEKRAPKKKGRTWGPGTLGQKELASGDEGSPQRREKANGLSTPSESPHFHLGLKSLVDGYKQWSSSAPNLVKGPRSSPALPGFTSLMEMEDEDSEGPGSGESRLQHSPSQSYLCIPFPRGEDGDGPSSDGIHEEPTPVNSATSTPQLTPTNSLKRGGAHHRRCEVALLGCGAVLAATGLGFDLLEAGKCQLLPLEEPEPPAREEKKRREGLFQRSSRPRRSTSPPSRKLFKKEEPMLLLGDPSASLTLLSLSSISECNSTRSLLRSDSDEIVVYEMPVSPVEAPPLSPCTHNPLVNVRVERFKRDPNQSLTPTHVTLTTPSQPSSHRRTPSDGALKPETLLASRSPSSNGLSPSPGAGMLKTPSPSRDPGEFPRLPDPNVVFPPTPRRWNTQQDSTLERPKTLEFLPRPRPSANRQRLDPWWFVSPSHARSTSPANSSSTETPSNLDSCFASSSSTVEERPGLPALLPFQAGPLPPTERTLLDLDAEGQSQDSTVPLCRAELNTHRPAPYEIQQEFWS
Experimental: as §1

MST2 = target: T3, MST2 (Homo sapiens, UniProt Q13188); conditions: read-out: Remaining protein kinase activity
T3 sequence (Q13188 1-491): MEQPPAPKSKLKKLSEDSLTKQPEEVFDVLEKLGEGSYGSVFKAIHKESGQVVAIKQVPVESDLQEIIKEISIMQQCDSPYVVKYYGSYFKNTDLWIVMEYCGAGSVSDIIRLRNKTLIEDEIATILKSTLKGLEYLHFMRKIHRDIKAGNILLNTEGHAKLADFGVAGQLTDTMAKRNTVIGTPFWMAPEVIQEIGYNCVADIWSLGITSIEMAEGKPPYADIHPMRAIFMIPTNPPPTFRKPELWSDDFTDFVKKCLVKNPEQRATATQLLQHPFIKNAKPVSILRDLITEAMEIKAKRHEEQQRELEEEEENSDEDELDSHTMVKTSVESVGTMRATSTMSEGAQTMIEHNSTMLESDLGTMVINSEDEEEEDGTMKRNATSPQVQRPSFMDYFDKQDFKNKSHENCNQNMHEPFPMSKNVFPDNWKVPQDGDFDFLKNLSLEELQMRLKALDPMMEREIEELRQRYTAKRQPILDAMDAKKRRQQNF
Experimental: as §1

Chain of MAPKAP-K3 (Q16644 whole entry): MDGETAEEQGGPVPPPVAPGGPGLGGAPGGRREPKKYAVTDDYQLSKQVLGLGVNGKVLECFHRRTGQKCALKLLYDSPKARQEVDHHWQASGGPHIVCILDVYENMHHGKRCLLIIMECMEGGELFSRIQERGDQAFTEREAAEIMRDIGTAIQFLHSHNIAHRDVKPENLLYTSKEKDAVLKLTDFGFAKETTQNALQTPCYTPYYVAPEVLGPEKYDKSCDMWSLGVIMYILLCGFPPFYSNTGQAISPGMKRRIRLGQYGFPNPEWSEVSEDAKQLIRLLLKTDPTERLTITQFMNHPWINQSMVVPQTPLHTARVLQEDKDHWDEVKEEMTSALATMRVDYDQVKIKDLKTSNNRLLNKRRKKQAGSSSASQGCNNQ

COc1ccc2sc(-c3cncc(NC(C)=O)c3)nc2c1 [PST-001, N-(5-(5-Methoxybenzo[d]thiazol-2-yl)pyridin-3-yl)acetamide]
remaining activity at 1 µM (MAPKAP-K3): 115%
remaining activity at 100 µM (MAPKAP-K3): 113%
Remaining protein kinase activity (ULK1; 1 μM): 129%
Remaining protein kinase activity (ULK1; 100 μM): 120%
remaining activity at 1 µM (EF2K): 113%
remaining activity at 100 µM (EF2K): 106%
remaining activity at 1 µM (TESK1): 105%
remaining activity at 100 µM (TESK1): 85%
Remaining protein kinase activity (BTK; 1 μM): 92%
Remaining protein kinase activity (BTK; 100 μM): 86%
remaining activity at 1 µM (MLK1): 108%
remaining activity at 100 µM (MLK1): 96%
remaining activity at 1 µM (MST2): 120%
remaining activity at 100 µM (MST2): 54%

COc1ccc2sc(-c3cncc(N)c3)nc2c1 [compound 1, 5-(5-Methoxybenzo[d]thiazol-2-yl)pyridin-3-amine]
remaining activity at 1 µM (MAPKAP-K3; MAPKAP-K3, 1 μM): 115%
remaining activity at 100 µM (MAPKAP-K3; MAPKAP-K3, 100 μM): 74%
Remaining protein kinase activity (ULK1; 1 μM): 116%
Remaining protein kinase activity (ULK1; 100 μM): 77%
remaining activity at 1 µM (EF2K; EF2K, 1 μM): 112%
remaining activity at 100 µM (EF2K; EF2K, 100 μM): 84%
remaining activity at 1 µM (TESK1; TESK1, 1 μM): 110%
remaining activity at 100 µM (TESK1; TESK1, 100 μM): 28%
Remaining protein kinase activity (BTK; 1 μM): 101%
Remaining protein kinase activity (BTK; 100 μM): 31%
remaining activity at 1 µM (MLK1; MLK1, 1 μM): 106%
remaining activity at 100 µM (MLK1; MLK1, 100 μM): 16%
remaining activity at 1 µM (MST2; MST2, 1 μM): 124%
remaining activity at 100 µM (MST2; MST2, 100 μM): 32%

— article PMC8617627, “Novel DYRK1A Inhibitor Rescues Learning and Memory Deficits in a Mouse Model of Down Syndrome” (Pharmaceuticals, 2021)
